# Data taken from PubChem BioAssay AID1919004 (Molecular Pharmacology Branch, DTP, NCI, 2023).
# Test system: 883617-216-R-J1-PDC complex spheroids, growth, % test/control
# Assay: Anticancer human tumor 883617-216-R-J1-PDC patient-derived bladder carcinoma cell line growth inhibition [AhR]
# Conditions: for viability, T/C: stronger effect = lower value
# Procedure, shortened: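 Spheroids combined tumor cells with HUVEC endothelial cells and human MSCs as stroma. AhR antagonists were paired with standard or investigational drugs, each dosed in half-log steps down from near clinical Cmax, or from 10 microM where Cmax was unknown.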
# [1] = curve of first compound, second compound 0.1 µM
# [2] = curve of first compound, second compound 0.316 µM
# [3] = curve of first compound, second compound 1 µM
# [4] = curve of first compound, second compound 3.16 µM
# [5] = curve of first compound, second compound 10 µM
# [6] = second compound 0.1 µM, first compound 0.0316 µM
# [7] = second compound 0.1 µM, first compound 0.1 µM
# [8] = second compound 0.1 µM, first compound 0.316 µM
# [9] = second compound 0.1 µM, first compound 1 µM
# [10] = second compound 0.1 µM, first compound 3.16 µM
# [11] = second compound 0.1 µM, first compound 10 µM
# [12] = second compound 0.316 µM, first compound 0.0316 µM
# [13] = second compound 0.316 µM, first compound 0.1 µM
# [14] = second compound 0.316 µM, first compound 0.316 µM
# [15] = second compound 0.316 µM, first compound 1 µM
# [16] = second compound 0.316 µM, first compound 3.16 µM
# [17] = second compound 0.316 µM, first compound 10 µM
# [18] = second compound 1 µM, first compound 0.0316 µM
# [19] = second compound 1 µM, first compound 0.1 µM
# [20] = second compound 1 µM, first compound 0.316 µM
# [21] = second compound 1 µM, first compound 1 µM
# [22] = second compound 1 µM, first compound 3.16 µM
# [23] = second compound 1 µM, first compound 10 µM
# [24] = second compound 3.16 µM, first compound 0.0316 µM
# [25] = second compound 3.16 µM, first compound 0.1 µM
# [26] = second compound 3.16 µM, first compound 0.316 µM
# [27] = second compound 3.16 µM, first compound 1 µM
# [28] = second compound 3.16 µM, first compound 3.16 µM
# [29] = second compound 3.16 µM, first compound 10 µM
# [30] = second compound 10 µM, first compound 0.0316 µM
# [31] = second compound 10 µM, first compound 0.1 µM
# [32] = second compound 10 µM, first compound 0.316 µM
# [33] = second compound 10 µM, first compound 1 µM
# [34] = second compound 10 µM, first compound 3.16 µM
# [35] = second compound 10 µM, first compound 10 µM
# 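Further: exposure lasted 7 days after dosing on day 3 of spheroid growth.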
Structure (SMILES),IC50 [1],IC50 [2],IC50 [3],IC50 [4],IC50 [5],"viability, T/C [6]","viability, T/C [7]","viability, T/C [8]","viability, T/C [9]","viability, T/C [10]","viability, T/C [11]","viability, T/C [12]","viability, T/C [13]","viability, T/C [14]","viability, T/C [15]","viability, T/C [16]","viability, T/C [17]","viability, T/C [18]","viability, T/C [19]","viability, T/C [20]",other results
CC(C)c1c(-c2ccccc2)nc2c(C#N)c[nH]n2c1=O + Cc1cncc(-c2nc(NCCc3c[nH]c4ccccc34)c3ncn(C(C)C)c3n2)c1,> 10000 nM,> 10000 nM,> 10000 nM,> 10000 nM,68.1 nM,98.7%,93.8%,99.3%,99.7%,92.6%,91.7%,107%,91.8%,93%,97.6%,103%,94%,96.6%,114%,107%,"viability, T/C [21]: 104%; viability, T/C [22]: 102%; viability, T/C [23]: 111%; viability, T/C [24]: 105%; viability, T/C [25]: 109%; viability, T/C [26]: 115%; viability, T/C [27]: 105%; viability, T/C [28]: 111%; viability, T/C [29]: 121%; viability, T/C [30]: 53.4%; viability, T/C [31]: 48.5%; viability, T/C [32]: 48.4%; viability, T/C [33]: 41.7%; viability, T/C [34]: 43.5%; viability, T/C [35]: 55.4%"
O=C(C=Cc1cccc(S(=O)(=O)Nc2ccccc2)c1)NO + Cc1ccccc1N=Nc1ccc(NC(=O)c2ccnn2C)c(C)c1,1570 nM,1730 nM,1370 nM,1530 nM,1580 nM,86.6%,80%,77.1%,56.6%,36.6%,2.17%,89.2%,88.1%,77.6%,68%,32%,2.44%,76.7%,96.8%,69.1%,"viability, T/C [21]: 56.8%; viability, T/C [22]: 31.2%; viability, T/C [23]: 1.92%; viability, T/C [24]: 70.9%; viability, T/C [25]: 87.2%; viability, T/C [26]: 73.3%; viability, T/C [27]: 62.9%; viability, T/C [28]: 28.2%; viability, T/C [29]: 1.87%; viability, T/C [30]: 74.6%; viability, T/C [31]: 76.3%; viability, T/C [32]: 68.1%; viability, T/C [33]: 63.1%; viability, T/C [34]: 32%; viability, T/C [35]: 2.57%"
CC(C)c1c(-c2ccccc2)nc2c(C#N)c[nH]n2c1=O + Cc1ccccc1N=Nc1ccc(NC(=O)c2ccnn2C)c(C)c1,> 10000 nM,> 10000 nM,> 10000 nM,> 10000 nM,> 10000 nM,91.7%,101%,85.9%,103%,101%,93.7%,99.1%,94.6%,86.6%,93.9%,86%,91.1%,84%,85%,87.7%,"viability, T/C [21]: 84.8%; viability, T/C [22]: 91%; viability, T/C [23]: 91.6%; viability, T/C [24]: 87.7%; viability, T/C [25]: 89.6%; viability, T/C [26]: 72.8%; viability, T/C [27]: 84.5%; viability, T/C [28]: 82.9%; viability, T/C [29]: 77.7%; viability, T/C [30]: 75.4%; viability, T/C [31]: 78.3%; viability, T/C [32]: 82.1%; viability, T/C [33]: 79.3%; viability, T/C [34]: 75.9%; viability, T/C [35]: 82.9%"
COc1ccc([C@@H](O)c2cc(-c3ncnc4cc(N5CCOCC5)ccc34)c(F)cc2Cl)nn1 + Cc1ccccc1N=Nc1ccc(NC(=O)c2ccnn2C)c(C)c1,3450 nM,2300 nM,2420 nM,1780 nM,1690 nM,97.8%,91.4%,81.3%,67.8%,51.4%,33.8%,83.7%,84.9%,78.3%,61.4%,46.4%,33.9%,91.1%,80.7%,72.8%,"viability, T/C [21]: 60.2%; viability, T/C [22]: 47.2%; viability, T/C [23]: 32.6%; viability, T/C [24]: 76.8%; viability, T/C [25]: 80%; viability, T/C [26]: 76.1%; viability, T/C [27]: 58.2%; viability, T/C [28]: 41.9%; viability, T/C [29]: 32.9%; viability, T/C [30]: 75.4%; viability, T/C [31]: 74.2%; viability, T/C [32]: 64.5%; viability, T/C [33]: 57.3%; viability, T/C [34]: 42.3%; viability, T/C [35]: 34.2%"
CC(CO)NC(=O)c1cc(-c2ccc(Cl)cc2)nn(-c2cnn(C)c2)c1=O (stereo unspecified),–,–,–,–,–,–,–,–,–,–,–,–,–,–,–,–,–,–,–,–,"IC50 (compound alone, run of 05/31/2022): > 10000 nM"
COc1cccc2c1C(=O)c1c(O)c3c(c(O)c1C2=O)CC(O)(C(=O)CO)CC3OC1CC(N)C(O)C(C)O1 (stereo unspecified) + Cc1ccccc1N=Nc1ccc(NC(=O)c2ccnn2C)c(C)c1,284 nM,255 nM,339 nM,258 nM,380 nM,66.5%,60.6%,48.4%,22.7%,0.11%,0.14%,67.5%,61.3%,47.5%,16.7%,0.12%,0.15%,56.8%,63.4%,51.5%,"viability, T/C [21]: 16.5%; viability, T/C [22]: 0.12%; viability, T/C [23]: 0.65%; viability, T/C [24]: 66.5%; viability, T/C [25]: 56%; viability, T/C [26]: 48.7%; viability, T/C [27]: 11.9%; viability, T/C [28]: 0.12%; viability, T/C [29]: 0.5%; viability, T/C [30]: 58.6%; viability, T/C [31]: 57.3%; viability, T/C [32]: 57.8%; viability, T/C [33]: 8.97%; viability, T/C [34]: 0.18%; viability, T/C [35]: 0.21%"
COc1cc(C2c3cc4c(cc3C(OC3OC5COC(C)OC5C(O)C3O)C3COC(=O)C23)OCO4)cc(OC)c1O (stereo unspecified) + Cc1ccccc1N=Nc1ccc(NC(=O)c2ccnn2C)c(C)c1,> 10000 nM,> 10000 nM,> 10000 nM,> 10000 nM,> 10000 nM,86.4%,83.5%,69.7%,68%,69.5%,57.4%,80.8%,86.7%,77.3%,69%,70.2%,57.6%,80.7%,82%,75.7%,"viability, T/C [21]: 64.6%; viability, T/C [22]: 72.1%; viability, T/C [23]: 54.2%; viability, T/C [24]: 73%; viability, T/C [25]: 72.7%; viability, T/C [26]: 71.1%; viability, T/C [27]: 61.2%; viability, T/C [28]: 70.9%; viability, T/C [29]: 56.4%; viability, T/C [30]: 67.8%; viability, T/C [31]: 77.5%; viability, T/C [32]: 73.2%; viability, T/C [33]: 65.6%; viability, T/C [34]: 63.5%; viability, T/C [35]: 57.1%"
COc1cc(Nc2ncc3c(n2)-c2ccc(Cl)cc2C(c2c(F)cccc2OC)=NC3)ccc1C(=O)O + CC(CO)NC(=O)c1cc(-c2ccc(Cl)cc2)nn(-c2cnn(C)c2)c1=O,> 10000 nM,> 10000 nM,> 10000 nM,> 10000 nM,> 10000 nM,140%,128%,77.8%,97%,86.6%,120%,128%,85%,80.5%,87%,60.8%,95.6%,124%,123%,93.3%,"viability, T/C [21]: 48.3%; viability, T/C [22]: 103%; viability, T/C [23]: 101%; viability, T/C [24]: 77%; viability, T/C [25]: 103%; viability, T/C [26]: 135%; viability, T/C [27]: 105%; viability, T/C [28]: 70.9%; viability, T/C [29]: 70.6%; viability, T/C [30]: 130%; viability, T/C [31]: 71%; viability, T/C [32]: 121%; viability, T/C [33]: 125%; viability, T/C [34]: 71.7%; viability, T/C [35]: 88.4%"
